Entries after “also recorded” stand apart in the source; their conditions may differ.
Key:
[1] = system: prostate cancer cell line LNCaP; experiment: Colony (clonogenic) assay, serum-free, LNCaP; type: cell-based; settings: 14 days, concentration giving 50% inhibition of cell growth; for EC50: Homo sapiens, LNCaP, 336 h
Procedure: (§1) Specifically, the following assay procedure was employed to test certain exemplary compounds of the invention in the breast cancer cell line known in the art as MCF-7 and in the prostrate cancer cell line known in the art as LNCaP.
(§2) Set 4 mL cultures in 60 mm petri dishes
(medium for LNCaP—[…] with ITS & linoleic acid)
(§3) Seeding density: LNCaP serum-free 1200 cells/dish; MCF-7 serum-free 1400 cells/dish
(§4) Add compound immediately after setting cultures and then change the media and re-feed with compound at day 2 (or day 3 for assays set on Fridays).
(§5) Incubated for 14 days (serum free lines)
(§6) 2. fix with 10% formal saline for ˜30 mins
(§7) 3. remove formal saline and wash with 2-3 mLs PBS
(§8) 4. stain with 1% methylene blue in PBS, leave this on for ˜1 hr
(§9) 5. remove stain and wash off in tap water
(§10) 6. dry overnight and count the colonies
(§11) The results obtained in these assays are shown in Table 1, expressed in EC50 numbers, where EC50 is the concentration (expressed as nanomolar) of the compound that results in 50% inhibition of the growth of the cells.

[2] = system: breast cancer cell line MCF-7; experiment: Colony (clonogenic) assay, serum-free, MCF-7; type: cell-based; settings: 14 days, concentration giving 50% inhibition of cell growth
Procedure: as §1, §2
(medium for MCF-7—DMEN with L-glutamine & without glucose)
as §3, §4, §5, §6, §7, §8, §9, §10, §11

| Compound | EC50 for Prostate Cancer Cell Line (LNCaP) [1] | EC50 [2] [nM] | EC50 [1] [nM] | EC50 ([2]; Homo sapiens, MCF7, 336 h) [nM] | EC50 for Breast Cancer Cell Line (MCF-7) [2] |
| --- | --- | --- | --- | --- | --- |
| 4-[3-(1-Phenylethyl-4,4-dimethyl-2-oxo-1,2,3,4-tetrahydro-quinolin-6-yl)-3-oxo-propenyl]-benzoic acid [Compound 8e] | Not Active | 9 | – | – | – |
| CCCCCCCCN1C(=O)CC(C)(C)c2cc(C(=O)C=Cc3ccc(C(=O)O)cc3)ccc21 [Compound 8c, 4-[3-(1-Octyl-4,4-dimethyl-2-oxo-1,2,3,4-tetrahydro-quinolin-6-yl)-3-oxo-propenyl]-benzoic acid] | – | – | 52 | 30 | – |
| CN1C(=O)CC(C)(C)c2cc(C(=O)C=Cc3ccc(C(=O)O)cc3)ccc21 [Compound 8f, 4-[3-(1-Methyl-4,4-dimethyl-2-oxo-1,2,3,4-tetrahydro-quinolin-6-yl)-3-oxo-propenyl]-benzoic acid] | inactive; also recorded: Not Active | – | – | – | inactive; also recorded: Not Active |
| CCCCCCCN1C(=O)CC(C)(C)c2cc(C(=O)C=Cc3ccc(C(=O)O)cc3)ccc21 [Compound 8b, 4-[3-(1-Heptyl-4,4-dimethyl-2-oxo-1,2,3,4-tetrahydro-quinolin-6-yl)-3-oxo-propenyl]-benzoic acid] | – | – | 155 | 9 | – |
| CCCCCCN1C(=O)CC(C)(C)c2cc(C(=O)C=Cc3ccc(C(=O)O)cc3)ccc21 [Compound 8a, 4-[3-(1-Hexyl-4,4-dimethyl-2-oxo-1,2,3,4-tetrahydro-quinolin-6-yl)-3-oxo-propenyl]-benzoic acid] | – | – | 90 | 9 | – |
| CCCCCCCCCN1C(=O)CC(C)(C)c2cc(C(=O)C=Cc3ccc(C(=O)O)cc3)ccc21 [Compound 8d, 4-[3-(1-Nonyl-4,4-dimethyl-2-oxo-1,2,3,4-tetrahydro-quinolin-6-yl)-3-oxo-propenyl]-benzoic acid] | – | – | 155 | 3 | – |
